Consider ten compounds from patent US11470846B2, “Herbicidal pyridino-/pyrimidino-thiazoles” (SYNGENTA PARTICIPATIONS AG, priority 2014, dated 2022).

Format in all cases: in vivo
Assay [1] concerns Alopecurus myosuroides (ALOMY). As to the kind of experiment: Pre-emergence herbicidal activity. Conditions: pre-emergence application, 1000 g/Ha, evaluated after 13 days, scale 0-5. Here is the method:
(§1) B1 Pre-Emergence Herbicidal Activity
(§2) Seeds of a variety of test species were sown in standard soil in pots: Triticum aestivium (TRZAW), Oryza sativa (ORYSA), Avena fatua (AVEFA), Alopecurus myosuroides (ALOMY), Echinochloa crus-galli (ECHCG), Lolium perenne (LOLPE), Zea Mays (ZEAMX), Abutilon theophrasti (ABUTH), Amaranthus retroflexus (AMARE) and Setaria faberi (SETFA). After cultivation for one day (pre-emergence) under controlled conditions in a glasshouse (at 24/16° C., day/night; 14 hours light; 65% humidity), the plants were sprayed with an aqueous spray solution derived from the formulation of the technical active ingredient in acetone/water (50:50) solution containing 0.5% Tween 20 (polyoxyethelyene sorbitan monolaurate, CAS RN 9005-64-5). The test plants were then grown in a glasshouse under controlled conditions (at 24/16° C., day/night; 14 hours light; 65% humidity) and watered twice daily. After 13 days, the test was evaluated (5=total damage to plant; 0=no damage to plant).

Assay [2] relates to Avena fatua (AVEFA). As to the kind of experiment: Pre-emergence herbicidal activity. Conditions: pre-emergence application, 1000 g/Ha, evaluated after 13 days, scale 0-5. Here is the method: as §1, §2
In assay [3] the test system is Echinochloa crus-galli (ECHCG). The assay can be described thus: Pre-emergence herbicidal activity. Conditions: pre-emergence application, 1000 g/Ha, evaluated after 13 days, scale 0-5; Table 5. On the procedure:
as §1, §2

The test system of assay [4] is Lolium perenne (LOLPE). The assay can be described thus: Pre-emergence herbicidal activity. Conditions: pre-emergence application, 1000 g/Ha, evaluated after 13 days, scale 0-5; Table 5. On the procedure:
as §1, §2

The subject of assay [5] is Oryza sativa (ORYSA). As to the kind of experiment: Pre-emergence herbicidal activity. The settings on record: pre-emergence application, 1000 g/Ha, evaluated after 13 days, scale 0-5. Here is the method:
as §1, §2

The subject of assay [6] is Triticum aestivium (TRZAW). The assay can be described thus: Pre-emergence herbicidal activity. Conditions: pre-emergence application, 1000 g/Ha, evaluated after 13 days, scale 0-5. Here is the method:
as §1, §2

Assay [7] deals with Alopecurus myosuroides (ALOMY). As to the kind of experiment: Post-emergence herbicidal activity. The settings on record: post-emergence application, 1000 g/Ha, evaluated after 13 days, scale 0-5. On the procedure: (§3) B2 Post-Emergence Herbicidal Activity
(§4) Seeds of a variety of test species were sown in standard soil in pots: Triticum aestivium (TRZAW), Oryza sativa (ORYSA), Avena fatua (AVEFA), Alopecurus myosuroides (ALOMY), Echinochloa crus-galli (ECHCG), Lolium perenne (LOLPE), Zea Mays (ZEAMX), Abutilon theophrasti (ABUTH), Amaranthus retroflexus (AMARE) and Setaria faberi (SETFA). After 8 days cultivation (post-emergence) under controlled conditions in a glasshouse (at 24/16° C., day/night; 14 hours light; 65% humidity), the plants were sprayed with an aqueous spray solution derived from the formulation of the technical active ingredient in acetone/water (50:50) solution containing 0.5% Tween 20 (polyoxyethelyene sorbitan monolaurate, CAS RN 9005-64-5). The test plants were then grown in a glasshouse under controlled conditions (at 24/16° C., day/night; 14 hours light; 65% humidity) and watered twice daily. After 13 days, the test was evaluated (5=total damage to plant; 0=no damage to plant).

For assay [8], the system named is Avena fatua (AVEFA). The assay can be described thus: Post-emergence herbicidal activity. The settings on record: post-emergence application, 1000 g/Ha, evaluated after 13 days, scale 0-5. Here is the method: as §3, §4
The test system of assay [9] is Echinochloa crus-galli (ECHCG). The assay can be described thus: Post-emergence herbicidal activity. The settings on record: post-emergence application, 1000 g/Ha, evaluated after 13 days, scale 0-5; Table 7. On the procedure:
as §3, §4

Assay [10] deals with Lolium perenne (LOLPE). The assay can be described thus: Post-emergence herbicidal activity. Conditions: post-emergence application, 1000 g/Ha, evaluated after 13 days, scale 0-5; Table 7. On the procedure:
as §3, §4

Assay [11] has as its system Oryza sativa (ORYSA). The assay can be described thus: Post-emergence herbicidal activity. The settings on record: post-emergence application, 1000 g/Ha, evaluated after 13 days, scale 0-5. On the procedure: as §3, §4
The subject of assay [12] is Triticum aestivium (TRZAW). The assay can be described thus: Post-emergence herbicidal activity. The settings on record: post-emergence application, 1000 g/Ha, evaluated after 13 days, scale 0-5. On the procedure:
as §3, §4

As for `Cc1nc(-c2cncc(F)c2)sc1N(C)C(=O)OC(C)(C)C` [Compound A3, tert-butyl N-[2-(5-fluoro-3-pyridyl)-4-methyl-thiazol-5-yl]-N-methyl-carbamate], the “Control of weed species, ALOMY (damage score)” value (“Control of weed species, ALOMY” below) in assay [1] and in assay [7] was 1 throughout. Also, the “Control of weed species, AVEFA (damage score)” value (“Control of weed species, AVEFA” below) is 3 in assay [2] and 4 in assay [8]. Also, the “Control of weed species, ECHCG (damage score)” value (“Control of weed species, ECHCG” below) came to 4 in assay [3] and 5 in [9]. Moreover, the “Control of weed species, LOLPE (damage score)” value (“Control of weed species, LOLPE” below) is on record as 2 in assay [4] and 3 in assay [10]. Also, the “Control of weed species, ORYSA (damage score)” value (“Control of weed species, ORYSA” below) in assay [5] and in assay [11] was 1 each time. For the same compound, the “Control of weed species, TRZAW (damage score)” value (“Control of weed species, TRZAW” below) in assay [6] and in [12] was 1 each time.

Turning to `Cc1nc(-c2cccnc2)sc1N(C)C(=O)OC(C)C` [Compound A20], the “Control of weed species, ALOMY” value came out at 0 in [1] and 1 in assay [7]. For the same compound, the “Control of weed species, AVEFA” value in assay [2] was found to be 2; in assay [8], 3. Besides, the “Control of weed species, ECHCG” value in [3] and in assay [9] was 5 each time. For the same compound, the “Control of weed species, LOLPE” value in [4] worked out at 2; in [10] it was 3. Moreover, the “Control of weed species, ORYSA” value in [5] and in assay [11] was 0 throughout. For the same compound, the “Control of weed species, TRZAW” value in [6] is reported as 0; in assay [12], 1.

Turning to `Cc1nc(-c2cc(F)c[n+]([O-])c2)sc1N(C)C(=O)OC(C)(C)C` [Compound A62, tert-butyl N-[2-(5-fluoro-3-pyridyl N-oxide)-4-methyl-thiazol-5-yl]-N-methyl-carbamate], the “Control of weed species, ALOMY” value in assay [1] is 2; in assay [7] it was 1. In addition, the figures for the “Control of weed species, AVEFA” value in [2] and in assay [8] were 2 and 4, respectively. In addition, the entries for the “Control of weed species, ECHCG” value in assay [3] and in assay [9] were 3 and 4, respectively. Further, the results for the “Control of weed species, LOLPE” value in assay [4] and in assay [10] were 2 and 4, respectively. Moreover, the “Control of weed species, ORYSA” value in assay [5] was 1; in assay [11], 0. For the same compound, the “Control of weed species, TRZAW” value in assay [6] and in [12] was 1 each time.

In the case of `CN(C(=O)OC(C)(C)C)c1sc(-c2cccnc2)nc1Cl` [Compound A29], the “Control of weed species, ALOMY” value in assay [1] and in assay [7] was 1 each time. The figures for the “Control of weed species, AVEFA” value in [2] and in assay [8] were 2 and 4, respectively. In addition, the “Control of weed species, ECHCG” value in [3] is 3; in [9], 5. In addition, the “Control of weed species, LOLPE” value worked out at 2 in assay [4] and 4 in assay [10]. Moreover, the “Control of weed species, ORYSA” value in assay [5] was 2; in assay [11], 1. Besides, the “Control of weed species, TRZAW” value in assay [6] stood at 3; in assay [12], 1.

Take `CN(C(=O)OC(C)(C)C)c1sc(-c2cccnc2)nc1C(F)(F)F` [Compound A25]: the “Control of weed species, ALOMY” value in [1] and in assay [7] was 1 each time. Also, the “Control of weed species, AVEFA” value in assay [2] and in [8] was 4 each time. Besides, the “Control of weed species, ECHCG” value came to 4 in assay [3] and 5 in [9]. In addition, the “Control of weed species, LOLPE” value in assay [4] is recorded as 3; in assay [10], 4. The “Control of weed species, ORYSA” value in assay [5] and in assay [11] was 1 each time. Besides, the “Control of weed species, TRZAW” value in assay [6] is recorded as 0; in assay [12], 2.

As for `CN(C(=O)OC(C)(C)C)c1sc(-c2cncc(Cl)c2)nc1C(F)(F)F` [Compound A27], the “Control of weed species, ALOMY” value in [1] was determined as 0; in assay [7], 1. Further, the “Control of weed species, AVEFA” value in assay [2] stood at 2; in [8], 4. Also, the “Control of weed species, ECHCG” value in [3] was found to be 2; in [9] it was 5. For the same compound, the entries for the “Control of weed species, LOLPE” value in assay [4] and in assay [10] were 2 and 3, respectively. Besides, the “Control of weed species, ORYSA” value is listed as 0 in [5] and 1 in assay [11]. The “Control of weed species, TRZAW” value in [6] is on record as 0; in assay [12] it was 2.

Turning to `Cc1nc(-c2cccnc2)sc1N(C)C(=O)OC(C)(C)C` [Compound A1, tert-butyl N-methyl-N-[4-methyl-2-(3-pyridyl)thiazol-5-yl]carbamate], the “Control of weed species, ALOMY” value amounted to 2 in assay [1] and 0 in assay [7]. Besides, the “Control of weed species, AVEFA” value in assay [2] and in assay [8] was 4 each time. For the same compound, the “Control of weed species, ECHCG” value in [3] and in [9] was 4 each time. Also, the “Control of weed species, LOLPE” value in [4] was determined as 2; in assay [10], 4. For the same compound, the “Control of weed species, ORYSA” value in assay [5] stood at 2; in assay [11] it was 1. Also, the “Control of weed species, TRZAW” value amounted to 2 in [6] and 0 in assay [12].

`CN(C(=O)OC(C)(C)C)c1sc(-c2cccnc2)nc1F` [Compound A32, tert-butyl N-[4-fluoro-2-(3-pyridyl)thiazol-5-yl]-N-methyl-carbamate]: the results for the “Control of weed species, ALOMY” value in assay [1] and in assay [7] were 0 and 1, respectively. The “Control of weed species, AVEFA” value in assay [2] is recorded as 1; in [8] it was 3. The results for the “Control of weed species, ECHCG” value in [3] and in assay [9] were 2 and 3, respectively. Further, the entries for the “Control of weed species, LOLPE” value in [4] and in [10] were 1 and 2, respectively. The “Control of weed species, ORYSA” value is recorded as 2 in assay [5] and 1 in assay [11]. In addition, the “Control of weed species, TRZAW” value in assay [6] and in assay [12] was 0 in each case.

With `Cc1nc(-c2cccnc2)sc1N(C)C(=O)Oc1ccc([N+](=O)[O-])cc1` [Compound A61, (4-nitrophenyl) N-methyl-N-[4-methyl-2-(3-pyridyl)thiazol-5-yl]carbamate], the “Control of weed species, ALOMY” value in assay [7] is recorded as 0. Moreover, the “Control of weed species, AVEFA” value in assay [8] is 2. The “Control of weed species, ECHCG” value in [9] worked out at 1. Further, the “Control of weed species, LOLPE” value in [10] was 1. In addition, the “Control of weed species, ORYSA” value in assay [11] turned out to be 0. Further, the “Control of weed species, TRZAW” value in assay [12] is 1.

For `Cc1nc(-c2cncc(F)c2)sc1NC(=O)OC(C)(C)C` [Compound A35, tert-butyl N-[2-(5-fluoro-3-pyridyl)-4-methyl-thiazol-5-yl]carbamate], the “Control of weed species, ALOMY” value in assay [7] came to 0. For the same compound, the “Control of weed species, AVEFA” value in [8] is recorded as 1. In assay [9], the “Control of weed species, ECHCG” value is 2. Moreover, in assay [10], the “Control of weed species, LOLPE” value was 0. In addition, the “Control of weed species, ORYSA” value in assay [11] was determined as 0. Moreover, the “Control of weed species, TRZAW” value in assay [12] was 1.
